Measurements published in US5760027A, “Use of 7-alkylidene cephalosporins to inhibit elastase activity” (Research Corporation Technologies, Inc., priority 1996, dated 1998).

Experiments:
Type in all cases: biochemical
[1] = target: porcine pancreatic elastase (PPE) (Sus scrofa, UniProt P00772); assay: IC50 determination, inhibition of porcine pancreatic elastase (PPE); conditions: 5 min incubation with the inhibitor
[2] = target: T1, HLE (Homo sapiens, UniProt P08246); assay: inhibition of HLE followed as a function of time (FIG. 1); conditions: 10-fold molar excess of inhibitor, assayed at regular intervals (2 to 5 minutes)
T1 construct: chromogenic substrate MeOSuc-AAPV-pNA
T1 sequence (P08246 30-267): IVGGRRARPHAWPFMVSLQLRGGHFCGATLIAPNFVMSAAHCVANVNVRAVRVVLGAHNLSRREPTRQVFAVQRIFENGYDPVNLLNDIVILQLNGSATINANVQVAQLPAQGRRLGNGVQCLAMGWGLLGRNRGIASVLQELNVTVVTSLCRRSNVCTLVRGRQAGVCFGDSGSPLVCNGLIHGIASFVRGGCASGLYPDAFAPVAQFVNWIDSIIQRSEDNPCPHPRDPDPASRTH
Description: To further document the rapid, irreversible inhibition of this enzyme at low, nearly stoichiometric ratios of inhibitor to enzyme, for selected compounds, this inhibition was followed as a function of time.
The data in FIG. 1 were generated by incubating the enzyme with a 10-fold molar excess of inhibitor. Assays of residual enzymatic activity of this mixture were assayed at regular intervals (2 to 5 minutes).

[3] = target: T2, human leukocyte elastase (HLE) (Homo sapiens, UniProt P08246); assay: IC50 determination, inhibition of human leukocyte elastase (HLE), hydrolysis of N-(methoxysuccinyl)-L-alanyl-L-alanyl-L-prolyl-L-valine 4-nitroanilide at 410 nm; conditions: 5 min incubation with the inhibitor; pH 7.5 Tris buffer
T2 construct: purchased Elastin Products Company, Inc. (Owensville, Mo.)
T2 sequence (P08246 30-267): T1 sequence (P08246 30-267)

Chain of porcine pancreatic elastase (PPE) (P00772 27-266): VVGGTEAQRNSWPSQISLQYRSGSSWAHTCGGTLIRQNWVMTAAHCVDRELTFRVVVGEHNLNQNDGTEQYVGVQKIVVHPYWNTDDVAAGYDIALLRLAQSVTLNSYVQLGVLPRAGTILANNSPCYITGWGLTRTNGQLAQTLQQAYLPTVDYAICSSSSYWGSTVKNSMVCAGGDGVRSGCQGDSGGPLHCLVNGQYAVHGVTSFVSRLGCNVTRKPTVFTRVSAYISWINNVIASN

IC50 [1] [µM] | IC50 [3] [µM] | Compound | residual HLE activity / inhibition as a function of time [2]
> 10 | 4.27 | CC(=O)/C=C1/C(=O)N2C(C(=O)OC(c3ccccc3)c3ccccc3)=C(COC(C)=O)CS[C@H]12 [Compound 28, Benzhydryl 7-[(Z)-acetylmethylene]cephalosporanate] | leveling off and allowing the enzyme to regain its activity
4.8 | 2.07 | CC(=O)OCC1=C(C(=O)OC(c2ccccc2)c2ccccc2)N2C(=O)C(=C(Br)Br)[C@H]2S(=O)(=O)C1 [Compound 14, Benzhydryl 7-[dibromomethylene]cephalosporanate sulfone] | very potent, irreversible inhibitors of HLE
> 10 | > 10 | CC(=O)OCC1=C(C(=O)OC(c2ccccc2)c2ccccc2)N2C(=O)[C@@H](N)[C@H]2SC1 [Compound 1, Benzhydryl 7β-aminocephalosporanate] | –
> 10 | 2.56 | CC(=O)OCC1=C(C(=O)OC(c2ccccc2)c2ccccc2)N2C(=O)C(=C(Cl)Cl)[C@H]2S(=O)(=O)C1 [Compound 23, Benzhydryl 7-[dichloromethylene]cephalosporanate sulfone] | –
> 10 | 10.5 | CC(=O)OCC1=C(C(=O)OC(c2ccccc2)c2ccccc2)N2C(=O)C(=C=CC(C)(C)C)[C@H]2S(=O)(=O)C1 [Compound 5a, Benzhydryl 7-t-butylvinylidene cephalosporanate sulfone] | –
– | 5.35 | CO[C@H]1C(=O)N2C(C(=O)OC(c3ccccc3)c3ccccc3)=C(COC(C)=O)CS[C@H]12 [Compound 36, reference compound] | –
> 10 | 8.9 | CC(=O)OCC1=C(C(=O)OC(c2ccccc2)c2ccccc2)N2C(=O)/C(=C/c3ccccc3)[C@H]2S(=O)(=O)C1 [Compound 10, Benzhydryl 7-[(Z)-benzylidene]cephalosporanate sulfone] | –
> 10 | > 10 | CC(=O)OCC1=C(C(=O)OC(c2ccccc2)c2ccccc2)N2C(=O)/C(=C/c3ccccn3)[C@H]2S(=O)(=O)C1 [Compound 21, Benzhydryl 7-[(Z)-(2'-pyridyl)methylene]cephalosporanate sulfone] | –
> 10 | 5.4 | CC(=O)OCC1=C(C(=O)OC(c2ccccc2)c2ccccc2)N2C(=O)C(=C=CBr)[C@H]2SC1 [Compound 6, Benzhydryl 7-(-bromovinylidene)cephalosporanate] | –
6.42 | 0.26 | CC(=O)OCC1=C(C(=O)OC(c2ccccc2)c2ccccc2)N2C(=O)C(=C(Br)Br)[C@H]2SC1 [Compound 13, Benzhydryl 7-[dibromomethylene]cephalosporanate] | extremely rapid and efficient inhibitor of HLE
– | 13.5 | [2H]C(=C=C1C(=O)N2C(C(=O)OC(c3ccccc3)c3ccccc3)=C(COC(C)=O)CS(=O)(=O)[C@H]12)C(C)(C)C [Compound 5b] | –
4.1 | 6.1 | C=C=C1C(=O)N2C(C(=O)OC(c3ccccc3)c3ccccc3)=C(COC(C)=O)CS(=O)(=O)[C@H]12 [Compound 8, Benzhydryl 7-vinylidenecephalosporanate sulfone] | –
0.67 | 9 | C=C=C1C(=O)N2C(C(=O)OC(c3ccccc3)c3ccccc3)=C(COC(C)=O)CS[C@H]12 [Compound 7, Benzhydryl 7-vinylidenecephalosporanate] | –
– | 0.28 | CO[C@H]1C(=O)N2C(C(=O)OC(c3ccccc3)c3ccccc3)=C(COC(C)=O)CS(=O)(=O)[C@H]12 [Compound 37, reference compound] | –
> 10 | > 10 | CON(C)C(=O)/C=C1/C(=O)N2C(C(=O)OC(c3ccccc3)c3ccccc3)=C(COC(C)=O)CS(=O)(=O)[C@H]12 [Compound 27, Benzhydryl 7-[(Z)-N-methoxy-N-methylaminocarbonylmethylene]cephalosporanatesulfone] | –
> 10 | 6.41 | CC(=O)OCC1=C(C(=O)OC(c2ccccc2)c2ccccc2)N2C(=O)C(=C(Cl)Cl)[C@H]2SC1 [Compound 22, Benzhydryl 7-[dichloromethylene]cephalosporanate] | very potent, irreversible inhibitors of HLE
> 10 | 2.6 | COC(=O)/C=C1/C(=O)N2C(C(=O)OC(c3ccccc3)c3ccccc3)=C(COC(C)=O)CS[C@H]12 [Compound 24, Benzhydryl 7-[(Z)-methoxycarbonylmethylene]cephalosporanate] | very potent, irreversible inhibitors of HLE

IC50 [1] [µM] | IC50 [3] [µM] | Compound | residual HLE activity / inhibition as a function of time [2]
2.49 | 3.36 | CC(=O)OCC1=C(C(=O)OC(c2ccccc2)c2ccccc2)N2C(=O)/C(=C\Br)[C@H]2S(=O)(=O)C1 [Compound 16, Benzhydryl 7-[(E)-bromomethylene]cephalosporanate sulfone] | leveling off and allowing the enzyme to regain its activity
> 10 | 6 | CC(=O)OCC1=C(C(=O)OC(c2ccccc2)c2ccccc2)N2C(=O)/C(=C\c3ccccc3)[C@H]2S(=O)(=O)C1 [Compound 12, Benzhydryl 7-[(E)-benzylidene]cephalosporanate sulfone] | –
– | 0.49 | CC(=O)OCC1=C(C(=O)OC(c2ccccc2)c2ccccc2)N2C(=O)/C(=C/C#N)[C@H]2S(=O)(=O)C1 [Compound 31, Benzhydryl 7-[(Z)-cyanomethylene]cephalosporanate sulfone] | –
> 10 | > 10 | CC(=O)OCC1=C(C(=O)OC(c2ccccc2)c2ccccc2)N2C(=O)/C(=C/c3ccccc3)[C@H]2SC1 [Compound 9, benzhydryl 7-[(Z)-benzylidene] cephalosporanate] | –
9.6 | 0.39 | CC(=O)OCC1=C(C(=O)OC(c2ccccc2)c2ccccc2)N2C(=O)/C(=C\Br)[C@H]2SC1 [Compound 15, Benzhydryl 7-[(E)-bromomethylene]cephalosporanate] | very potent, irreversible inhibitors of HLE
> 10 | > 10 | CC(=O)OCC1=C(C(=O)OC(c2ccccc2)c2ccccc2)N2C(=O)/C(=C/c3ccccn3)[C@H]2SC1 [Compound 20, Benzhydryl 7-[(Z)-(2'-pyridyl)methylene]cephalosporanate] | –
> 10 | > 10 | CC(=O)OCC1=C(C(=O)OC(c2ccccc2)c2ccccc2)N2C(=O)/C(=C\c3ccccc3)[C@H]2SC1 [Compound 11, Benzhydryl 7-[(E)-benzylidene]cephalosporanate] | –
– | > 10 | CC(=O)OCC1=C(C(=O)OC(c2ccccc2)c2ccccc2)N2C(=O)/C(=C/C#N)[C@H]2SC1 [Compound 30, Benzhydryl 7-[(Z)-cyanomethylene]cephalosporanate] | –
5.2 | 13.9 | CC(=O)OCC1=C(C(=O)OC(c2ccccc2)c2ccccc2)N2C(=O)/C(=C/C=O)[C@H]2SC1 [Compound 19, Benzhydryl 7-[(Z)-formylmethylene]cephalosporanate] | –
> 10 | > 10 | CC(=O)OCC1=C(C(=O)OC(c2ccccc2)c2ccccc2)N2C(=O)C(=O)[C@H]2SC1 [Compound 2, Benzhydryl 7-oxocephalosporanate] | –
> 10 | > 10 | CC(=O)OCC1=C(C(=O)OC(c2ccccc2)c2ccccc2)N2C(=O)C[C@H]2SC1 [Compound 33, reference compound] | –
5.5 | > 10 | CC(=O)OCC1=C(C(=O)OC(c2ccccc2)c2ccccc2)N2C(=O)C(=C=CC(C)(C)C)[C@H]2SC1 [Compound 4, Benzhydryl 7-(t-butylvinylidene)cephalosporanate] | –
> 10 | 8.9 | COC(=O)/C=C1/C(=O)N2C(C(=O)OC(c3ccccc3)c3ccccc3)=C(COC(C)=O)CS(=O)(=O)[C@H]12 [Compound 25, Benzhydryl 7-[(Z)-(methoxycarbonyl)methylene]cephalosporanate sulfone] | –
– | 0.21 | COC(=O)/C(Br)=C1/C(=O)N2C(C(=O)OC(c3ccccc3)c3ccccc3)=C(COC(C)=O)CS[C@H]12 [Compound 32, Benzhydryl 7-{[(E)-bromo-(Z)-methoxycarbonyl]methylidene} cephalosporanate] | –
6 | > 10 | CC(=O)/C=C1/C(=O)N2C(C(=O)OC(c3ccccc3)c3ccccc3)=C(COC(C)=O)CS(=O)(=O)[C@H]12 [Compound 29, Benzhydryl 7-[(Z)-acetylmethylene]cephalosporanate sulfone] | –
> 10 | > 10 | CC(=O)OCC1=C(C(=O)OC(c2ccccc2)c2ccccc2)N2C(=O)/C(=C/CO)[C@H]2SC1 [Compound 26, Benzhydryl 7-[(Z)-(hydroxymethyl)methylene]cephalosporanate] | –

Compound | IC50 [1] [µM] | IC50 [3] [µM] | residual HLE activity / inhibition as a function of time [2]
CC(=O)OCC1=C(C(=O)OC(c2ccccc2)c2ccccc2)N2C(=O)/C(=C/C(=O)OC(C)(C)C)[C@H]2S(=O)(=O)C1 [Compound 18, Benzhydryl 7-[(Z)-(t-butoxycarbonyl)methylene]-cephalosporanate sulfone] | > 10 | 7.1 | –
CC(=O)OCC1=C(C(=O)OC(c2ccccc2)c2ccccc2)N2C(=O)/C(=C/C(=O)OC(C)(C)C)[C@H]2SC1 [Compound 17, Benzhydryl 7-[(Z)-t-butoxycarbonylmethylene]cephalosporanate] | – | > 10 | –
